# Experimental data from patent US8178506B2, “Oligomeric compounds and compositions for use in modulation of small non-coding RNAs” (Regulus Therapeutics Inc., priority 2003, dated 2012).
# Entries after “also recorded” stand apart in the source; their conditions may differ. In the oligonucleotide strings, read from the 5' end, every base follows the letter of its sugar. An asterisk marks phosphorothioate; unmarked linkages are phosphodiester. Other units and linkages are bracketed, terminal groups are in braces. A string of capitals states the bases alone. e = 2'-O-(2-methoxyethyl) (MOE); [5mC] = 5-methylcytosine; d = 2'-deoxy (DNA)
# Columns and labels:
# mir-15a pri-miRNA = mir-15a pri-miRNA expression in T47D cells (real-time RT-PCR); format: cell-based, human; conditions: for mir-15a pri-miRNA expression % UTC: real-time RT-PCR
# Excerpt: The gapmer oligomeric compounds targeting the mir-15b and mir-15-a-1 mature miRNAs described above were also transfected into T47D cells according to standard procedures. In addition, uniform 2′-MOE and 2′-MOE gapmer oligomeric compounds targeting the mature mir-15a-1 and mir-15b miRNAs were also transfected into T47D cells, for analysis of their effects on mir-15a-1 and mir-15b pri-miRNA levels. The oligomeric compounds ISIS Number 327927 (SEQ ID NO: 345), a uniform 2′-MOE compound and ISIS Number 345391 (SEQ ID NO: 345), a 2′-MOE 5-10-7 gapmer compound, both target mir-15b. The oligomeric compounds ISIS Number 327951 (SEQ ID NO: 369), a uniform 2′-MOE compound, and ISIS Number 345411 (SEQ ID NO: 369), a 2′-MOE 5-10-7 gapmer compound, both target mir-15a-1. Oligomeric compounds ISIS Number 129686 ([…]; SEQ ID NO: 901), and ISIS Number 129691 ([…]; SEQ ID NO:902), both universal scrambled controls, as well as ISIS Number 116847 ([…]; SEQ ID NO: 844) targeting an unrelated gene, PTEN, were used as negative controls. ISIS Numbers 129686, 129691, and 116847 are phosphorothiated 2′-MOE 5-10-5 gapmers, and all cytosines are 5-methylcytosines. T47D cells (seeded in 12-well plates) were treated with these oligomeric compounds, and RNA was isolated from the treated cells by lysing in 1 mL TRIZOL™ (Invitrogen) and total RNA was prepared using the manufacturer's recommended protocols. To assess the effects of these compounds on expression of the mir-15a or mir-15b pri-miRNA molecules, real-time RT-PCR analysis was performed using either the primer/probe set specific for the mir-15a pri-miRNA molecule described above, or a primer probe set specific for the mir-15b pri-miRNA molecule: ISIS 339320 ([…]; SEQ ID NO: 903) was used as the forward primer for the mir-15b pri-miRNA, ISIS 339321 ([…] ACTGT; SEQ ID NO: 904) was used as the reverse primer for the mir-15b pri-miRNA, and ISIS 339322 ([…]; SEQ ID NO: 905) was used as the probe. Total RNA was quantified using RiboGreen™ RNA quantification reagent (Molecular Probes, Inc. Eugene, Oreg.), expression levels observed for each target were normalized to 5.8S rRNA, and values are expressed relative to the untreated control. Inhibition of expression of the mir15a or mir-15b pri-miRNA molecules upon treatment with these oligomeric compounds is was assessed and expressed as a percentage of RNA levels in untreated control cells.
# Using the real-time RT-PCR methods described, the expression levels of the mir-15a pri-miRNA were compared in T47D cells treated with the nested series of uniform 2′-MOE oligomeric compounds, targeting and spanning the entire length of the mir-15a pri-miRNA. The region encompassing the mir-15a primary transcript (the complement of nucleotides 31603159 to 31603468 of GenBank Accession number NT—024524.13; AAATAATTATG […]) is incorporated herein as SEQ ID NO: 906. ISIS Number 356215 (SEQ ID NO: 879) targets a region flanking and immediately 5′ to the predicted 5′ Drosha cleavage site in the mir-15a pri-miRNA. ISIS Number 356218 (SEQ ID NO: 881) targets aregion in the loop of the mir-15a pri-miRNA. ISIS 356227 (SEQ ID NO: 883) targets a region flanking and immediately 3′ to the predicted 3′ Drosha cleavage site in the mir-15a pri-miRNA. Additionally, oligomeric compound ISIS 327951 (SEQ ID NO: 369), a uniform 2′-MOE compound targeting the mature mir-15a-1 miRNA, was tested for comparison. Oligomeric compounds ISIS 327901 (SEQ ID NO: 319) targeting the mature mir-143 miRNA; ISIS 129690, ([…]; SEQ ID NO: 907), a phosphorothioate 5-10-5 MOE gapmer used as a universal scrambled control; and ISIS 116847 ([…]; SEQ ID NO: 844), a uniform 5-10-52′-MOE gapmer targeting an unrelated gene, PTEN, were used as negative controls. Using the transfection methods previously described, T47D cells were treated with 100 nM of each of these oligomeric compounds. […]
# leptin = test: Leptin secretion by adipocytes (ELISA); format: cell-based, human; conditions: adipocytes, 250 nM oligomeric compound, day nine post-transfection, relative to control (1.0); Table 16
# Protocol: Leptin secretion into the medium in which adipocytes are cultured is measured by protein ELISA. On day nine post-transfection, 96-well plates are coated with a monoclonal antibody to human leptin (R&D Systems, Minneapolis, Minn.) and left at 4° C. overnight. The plates are blocked with bovine serum albumin (BSA), and a dilution of the treated adipoctye medium is incubated in the plate at room temperature for approximately 2 hours. After washing to remove unbound components, a second monoclonal antibody to human leptin (conjugated with biotin) is added. The plate is then incubated with strepavidin-conjugated horse radish peroxidase (HRP) and enzyme levels are determined by incubation with 3, 3′,5,5′-tetramethlybenzidine, which turns blue when cleaved by HRP. The OD450 is read for each well, where the dye absorbance is proportional to the leptin concentration in the cell lysate.
# Leptin is also a marker for differentiated adipocytes. In the adipocyte assay, leptin secretion into the media above the differentiated adipocytes was measured by protein ELISA. Cell growth, transfection and differentiation procedures were carried out as described for the Triglyceride accumulation assay (see below). On day nine post-transfection, 96-well plates were coated with a monoclonal antibody to human leptin (R&D Systems, Minneapolis, Minn.) and left at 4° C. overnight. The plates were blocked with bovine serum albumin (BSA), and a dilution of the media was incubated in the plate at RT for 2 hours. After washing to remove unbound components, a second monoclonal antibody to human leptin (conjugated with biotin) was added. The plate was then incubated with strepavidin-conjugated horseradish peroxidase (HRP) and enzyme levels are determined by incubation with 3, 3′, 5,5′-Tetramethlybenzidine, which turns blue when cleaved by HRP. The OD450 was read for each well, where the dye absorbance is proportional to the leptin concentration in the cell lysate. Results are expressed as a percent±standard deviation relative to transfectant-only controls.
# PPARγ = PPARγ mRNA expression in adipocytes (real-time PCR); format: cell-based, human; conditions: for PPAR gamma (mRNA expression): adipocytes, 250 nM oligomeric compound, day nine post-transfection, relative to control (1.0), Table 16
# HuVECs = test: Endothelial tube formation assay in HuVECs; conditions: 75 nM oligomeric compound
# adipocytes = test: Triglyceride accumulation assay in adipocytes; format: cell-based, human
# HSL = HSL mRNA expression in adipocytes (real-time PCR); format: cell-based, human; conditions: for HSL (mRNA expression): adipocytes, 250 nM oligomeric compound, day nine post-transfection, relative to control (1.0), Table 16
# aP2 = aP2 mRNA expression in adipocytes (real-time PCR); format: cell-based, human; conditions: for AP2 (mRNA expression): adipocytes, 250 nM oligomeric compound, day nine post-transfection, relative to control (1.0), Table 16
# preadipocytes = test: Caspase assay in preadipocytes; format: cell-based, human; conditions: untreated control set equal to 1.0
# Excerpt: The effect of oligomeric compounds of the present invention targeting miRNAs was examined in preadipocytes (Zen-Bio, Inc., Research Triangle Park, N.C.) using the fluorometric caspase assay previously described in Example 11.
# Glut4 = Glut4 mRNA expression in adipocytes (real-time PCR); format: cell-based, human; conditions: for Glut4 (mRNA expression): adipocytes, 250 nM oligomeric compound, day nine post-transfection, relative to control (1.0), Table 16
# [1] = test system: BJ, B16-F10, T47D, T47Dp53 and HeLa cells; test: Cell cycle assay (propidium iodide flow cytometry), cell line panel; format: cell-based; conditions: 150 nM oligomeric compound, 4.5 μg/ml LIPOFECTIN, after 72 hours, propidium iodide flow cytometry
# T47D cells = test: Caspase-3 activity assay (apoptosis) in T47D cells; conditions: T47D cells, 48 hours; for Fold Increase over UTC (caspase-3 activity, apoptosis): 200 nM oligomeric compound
# [2] = adipocytes, 250 nM oligomeric compound, relative to control (1.0), Table 16
# [3] = differentiating adipocytes transfected with oligomeric compound
Substance,mir-15a pri-miRNA expression % UTC (mir-15a pri-miRNA) [% UTC],Leptin (secretion) (leptin),PPAR gamma (mRNA expression) (PPARγ),% Activity Relative to UTC (tube formation) (HuVECs; Table 58) [%],TG (triglyceride accumulation) (adipocytes; [2]),HSL (mRNA expression) (HSL),AP2 (mRNA expression) (aP2),Fold Increase over UTC (caspase activity) (preadipocytes) [fold over UTC],Glut4 (mRNA expression) (Glut4),other results
116847 (antisense e[5mC]*eT*eG*e[5mC]*eT*dA*dG*d[5mC]*d[5mC]*dT*d[5mC]*dT*dG*dG*dA*eT*eT*eT*eG*eA) [compound 116847],132,–,–,–,–,–,–,–,–,–
327926 (antisense eA*e[5mC]*eT*eA*eT*eG*e[5mC]*eA*eA*e[5mC]*e[5mC]*eT*eA*e[5mC]*eT*eA*e[5mC]*e[5mC]*eT*e[5mC]*eT) [compound 327926],–,1.47,0.93,96.3,1.06,0.82,0.85,1.8,1.10,–
327930 (antisense eA*e[5mC]*eT*eA*eT*eA*e[5mC]*eA*eA*e[5mC]*e[5mC]*eT*e[5mC]*e[5mC]*eT*eA*e[5mC]*e[5mC]*eT*e[5mC]*eA) [compound 327930],–,0.95,0.98,88.9,0.97,0.89,0.86,1.4,1.01,–
327938 (antisense eA*eA*e[5mC]*eA*eA*eT*eA*e[5mC]*eA*eA*e[5mC]*eT*eT*eA*e[5mC]*eT*eA*e[5mC]*e[5mC]*eT*e[5mC]*eA) [compound 327938],–,1.35,0.90,96.3,1.05,0.85,0.86,1.0,0.80,–
327942 (antisense e[5mC]*e[5mC]*eA*eT*e[5mC]*eT*eT*eT*eA*e[5mC]*e[5mC]*eA*eG*eA*e[5mC]*eA*eG*eT*eG*eT*eT) [compound 327942],–,2.03,0.87,74.1,0.85,0.79,0.82,1.0,0.66,–
327955 (antisense eG*e[5mC]*e[5mC]*e[5mC]*eT*eT*eT*e[5mC]*eA*eT*e[5mC]*eA*eT*eT*eG*e[5mC]*eA*e[5mC]*eT*eG) [compound 327955],–,1.22,0.92,–,0.81,0.82,0.74,4.3,0.45,% Activity Relative to UTC (tube formation) (HuVECs; Table 59): 46.7%
356231 (eT*eT*e[5mC]*eA*eG*eA*eA*eG*eA*eT*e[5mC]*eA*eG*eA*eT*e[5mC]*e[5mC]*eT*eT*eG) [compound 356231],811,–,–,–,–,–,–,–,–,–
356232 (eA*eA*eA*eT*eA*eT*eA*eT*eT*eT*eT*e[5mC]*eT*eT*e[5mC]*eA*eG*eA*eA*eG) [compound 356232],631,–,–,–,–,–,–,–,–,–
ISIS 356215: uniform 2′-MOE PS; SEQ ID NO: 879; region immediately 5′ to 5′ Drosha cleavage site of mir-15a pri-miRNA (antisense eT*eG*e[5mC]*eT*eA*e[5mC]*eT*eT*eT*eA*e[5mC]*eT*e[5mC]*e[5mC]*eA*eA*eG*eG*eT*eT) [uniform 2′-MOE PS; region immediately 5′ to 5′ Drosha cleavage site of mir-15a pri-miRNA],–,–,–,–,–,–,–,–,–,levels of the mir-15a pri-miRNA molecule (mir-15a pri-miRNA; 100 nM): stimulate an increase in levels of the mir-15a pri-miRNA molecule; also recorded: stimulate the greatest increases in expression of the mir-15a pri-miRNA
"NNNNNNNNNNNNNNNNNNNN [ISIS 29848, reference compound]",–,–,–,–,–,–,–,1.2,–,"PPAR gamma mRNA (PPARγ; [3]): 100 percentage of untreated control (UTC); TG (triglyceride accumulation) (adipocytes; [3]): 89 percentage of untreated control (UTC); HSL mRNA (HSL; [3]): 84 percentage of untreated control (UTC); AP2 mRNA (aP2; [3]): 89 percentage of untreated control (UTC); G1 (percentage of cells in phase of the cell cycle) [1]: 57.8%; G2/M (percentage of cells in phase of the cell cycle) [1]: 15.6%; S (percentage of cells in phase of the cell cycle) [1]: 26.5%; SubG1 (percentage of cells in phase of the cell cycle) [1]: 9.6%; aneuploid (percentage of cells) [1]: 12%; GLUT4 mRNA (Glut4; [3]): 96 percentage of untreated control (UTC); Fold Increase over UTC (caspase-3 activity, apoptosis) (T47D cells; experiment of Table 10): 3.0 fold; Fold Increase over UTC (caspase-3 activity, apoptosis) (T47D cells; experiment of Table 11): 3.2 fold; Fold Increase over UTC (caspase-3 activity, apoptosis) (T47D cells; experiment of Table 12): 3.5 fold; Fold Increase over UTC (caspase activity) (T47D cells; 200 nM, relative to untreated control): 3.5"
